Columns and labels:
[1] = Thermal stability by TGA (temperature at weight loss); type: physicochemical; details: for Temp. at Weight Loss 5% / Temp. at Weight Loss 10% / Temp. at Weight Loss 15%: TGA, N2 at 10 °C/min; for Temp. at Weight Loss 5%: 5% weight loss; for Temp. at Weight Loss 10%: 10% weight loss; for Temp. at Weight Loss 15%: 15% weight loss; for thermal stability: result in words, compared with material A (OXE-1)
[2] = Solubility of the photoinitiators in organic solvents; type: physicochemical; details: 20°C, 100 g solvent

SMILES | Temp. at Weight Loss 5% [1] | Temp. at Weight Loss 10% [1] | Temp. at Weight Loss 15% [1] | thermal stability [1] | solubility ([2]; solvent PGMEA) | solubility ([2]; solvent cyclohexanone)
CCCCCCC(=NOC(=O)c1ccccc1)C(=O)c1ccc(Sc2ccccc2)cc1 [A, 1-(4-phenylthiophenyl)-n-octane-1,2-dione-2-benzoic acid oxime ester, reference compound] | 185 °C | 201 °C | 213 °C | – | – | –
O=C(ON=C(CC1CCCC1)C(=O)c1ccc(Sc2ccccc2)cc1)c1ccccc1 [B, 1-(4-phenylthiophenyl)-(3-cyclopentyl)-propane-1,2-dione-2-benzoic acid oxime ester] | 205 °C | 225 °C | 236 °C | better thermal stability than that of material A | 27.49 g | 35 g
CCn1c2ccc(C(=O)C(CC3CCCC3)=NOC(=O)c3ccccc3)cc2c2cc(C(=O)c3ccccc3C)ccc21 [C, 1-(6-o-methylbenzoyl-9-ethylcarbazole-3-yl)-(3-cyclopentyl)-propane-1,2-dione-2-benzoic acid oxime ester] | 230 °C | 245 °C | 255 °C | better thermal stability than that of material A | 6.93 g | 18 g

From patent EP2433927A1, “KETOXIME ESTER PHOTOINITIATOR” (Changzhou Tronly New Electronic Materials Co., Ltd, priority 2009, dated 2010)
